Assay results taken from ChEMBL document CHEMBL3301361, “Experimental in vitro DMPK and physicochemical data on a set of publicly disclosed compounds”.

What was measured:
[1] = in vitro; conditions: SD, HW or BN, rat, plasma
[2] = in vitro; conditions: human, plasma

SMILES | fraction unbound at 5 h [1] | fraction unbound at 5 h ([2]; PPB) | fraction unbound at 5 h [2]
O=c1nc(N2CCOCC2)cc(N(CCO)Cc2cccc3ccccc23)[nH]1 | 0.151 | 0.139 | 
CC(C)C(NC(=O)c1ccccc1)C(=O)c1ccc(C#N)cc1 (stereo not drawn) | 0.124 | 0.0928 | 
CNc1ccc(-c2nc3ccc(O)cc3s2)cc1 [PITTSBURGH COMPOUND B UNLABELLED] | 0.0183 | 0.0111 | 
COc1ccc(CCC[N+](C)(CCCc2ccc(OC)cc2)CCNC(=O)c2nc(Cl)c(N)nc2N)cc1 | 0.157 | 0.163 | 
Cc1nn(-c2ccccc2)nc1C(=O)N[C@@H]1COc2cccc(N3CCN(C)CC3)c2C1 | 0.0383 | 0.0418 | 
COc1cnc(-c2cccc(F)c2C(F)(F)CNC(=O)c2ccc(COCC(F)(F)F)nc2)cn1 | 0.0457 | 0.0328 | 
COc1ccc2c(c1)C(=O)C(=O)N2CC1COc2ccccc2O1 (stereo not drawn) | 0.0059 | 0.0066 | 
CCOC(=O)Nc1ccc(NCc2ccc(F)cc2)cc1N [EZOGABINE] | 0.201 |  | 0.139
c1ccc2c(c1)CCC[C@H]2Nc1nc2ccccc2[nH]1 | 0.0437 | 0.007 | 
Cc1ccc(S(=O)(=O)NCCSc2nnnn2-c2ccc(C(N)=O)cc2)cc1 | 0.19 | 0.101 | 
O=C(O)c1cccnc1 [NIACIN] | 0.546 | 0.552 | 
CCN1CCC[C@H]1CNC(=O)c1c(O)c(Cl)cc(Cl)c1OC [RACLOPRIDE] | 0.557 | 0.11 | 
C[N+](C)(Cc1ccc(NC(=O)c2ccc(Cl)c(Cl)c2)cc1)C1CCOCC1 [JNJ-17166864 CATION] | 0.387 | 0.179 | 
CC(C)(Oc1ccc(Cl)cc1)C(=O)N1CCN(c2ccccn2)CC1 | 0.0092 | 0.0077 | 
O=C(NCc1ccc(F)c(OC(F)(F)F)c1)C1c2ccccc2C(=O)N1CCc1ncc(F)cn1 (stereo not drawn) | 0.0988 | 0.0321 | 
CC(C)(C)NC(=O)CN1CCN(CC(=O)NC23CC4CC(CC(C4)C2)C3)CC1 | 0.309 | 0.299 | 
O=c1cc(N2CCOCC2)nc(NCc2cccc(Cl)c2)[nH]1 | 0.0477 | 0.0705 | 
C[S+]([O-])Cc1ccc(C(=O)Nc2cccnc2C(=O)NCC2CCC2)c2ccccc12 (stereo not drawn) | 0.0119 |  | 0.013
Cc1cc(Oc2ncc(C(F)(F)F)cc2Cl)ccc1CC1SC(=O)NC1=O (stereo not drawn) | 0.0021 | 0.0006 | 
O=c1cc(N2CCOCC2)nc(NCc2ccccc2)[nH]1 | 0.19 | 0.266 | 
Cc1ccc(S(=O)(=O)Nc2ccc3nc(C)sc3c2)cc1 | 0.0053 |  | 0.0021
CCN(CCO)C(=O)c1oc2cccnc2c1-c1cccc(C(F)(F)F)c1 | 0.139 | 0.0872 | 
Cc1c(F)cc(C(=O)NC2CC2)cc1-c1ccc(C(=O)NCC(C)(C)C)cn1 [LOSMAPIMOD] | 0.0818 | 0.119 | 
CC(C)C(NC(=O)c1cc(Cl)ccc1C(F)(F)F)C(=O)c1ccc(C#N)cc1 (stereo not drawn) | 0.0428 | 0.0262 | 
CC(C)(C)OC(=O)NC[C@H]1CC[C@H](CNC(=O)c2cc(-c3ccccc3)nc3ccccc23)CC1 | 0.005 | 0.0008 | 
O=c1cc(N2CCOCC2)nc(NCc2cccc3ccccc23)[nH]1 | 0.0251 | 0.0321 | 
CN1CCN(S(=O)(=O)c2ccc(-c3cnc(N)c(C(=O)Nc4cnccc4CN4CCCC4)n3)cc2)CC1 | 0.0988 | 0.0784 | 
O=S(=O)(N[C@H](CO)C(C(F)(F)F)C(F)(F)F)c1ccc(Cl)s1 [BEGACESTAT] | 0.11 | 0.0909 | 
CC(NC(=O)c1cc2ccccc2[nH]1)c1ccccc1 (stereo not drawn) | 0.0366 | 0.0219 | 
